18 compounds from ChEMBL document CHEMBL5316345, “Discovery of the Potent and Selective MC4R Antagonist PF-07258669 for the Potential Treatment of Appetite Loss” (J Med Chem, 2023) can be followed below.

Data set [1] in a line: Metabolic stability in human hepatocyte assessed as intrinsic clearance measured per 10^6 cells HPLC/UV/MS analysis. It is filed as ADME, cell-based. Conditions: hepatocytes, read-out: CLH.
A further data set has as its target Cytochrome P450 3A (Homo sapiens, UniProt P08684+P20815+Q9HB55+P24462). The data set can be described thus: Time dependent inhibition of CYP3A (unknown origin) at 10 uM relative to control. It is filed as ADME, protein assay.
The nature of data set [2]: Octanol-water distribution coefficient, logD of the compound at pH 7.4 by RP-HPLC analysis. In kind it is physicochemical.
Data set [3] is described as follows: Metabolic stability in human hepatocyte assessed as intrinsic clearance measured per million cells HPLC/UV/MS analysis. In kind it is ADME, cell-based. Conditions: hepatocytes, read-out: CLH.
For data set [4], the target named is Voltage-gated inwardly rectifying potassium channel KCNH2 (Homo sapiens, UniProt Q12809). The experiment in a line: Inhibition of hERG expressed in CHO cells stably at -80 mV holding potential by automated patch clamp method. It is filed as toxicity, cell-based. Background: hERG is a cardiac potassium channel; its block is linked to QT prolongation.
Chain of Voltage-gated inwardly rectifying potassium channel KCNH2 (Q12809 whole entry): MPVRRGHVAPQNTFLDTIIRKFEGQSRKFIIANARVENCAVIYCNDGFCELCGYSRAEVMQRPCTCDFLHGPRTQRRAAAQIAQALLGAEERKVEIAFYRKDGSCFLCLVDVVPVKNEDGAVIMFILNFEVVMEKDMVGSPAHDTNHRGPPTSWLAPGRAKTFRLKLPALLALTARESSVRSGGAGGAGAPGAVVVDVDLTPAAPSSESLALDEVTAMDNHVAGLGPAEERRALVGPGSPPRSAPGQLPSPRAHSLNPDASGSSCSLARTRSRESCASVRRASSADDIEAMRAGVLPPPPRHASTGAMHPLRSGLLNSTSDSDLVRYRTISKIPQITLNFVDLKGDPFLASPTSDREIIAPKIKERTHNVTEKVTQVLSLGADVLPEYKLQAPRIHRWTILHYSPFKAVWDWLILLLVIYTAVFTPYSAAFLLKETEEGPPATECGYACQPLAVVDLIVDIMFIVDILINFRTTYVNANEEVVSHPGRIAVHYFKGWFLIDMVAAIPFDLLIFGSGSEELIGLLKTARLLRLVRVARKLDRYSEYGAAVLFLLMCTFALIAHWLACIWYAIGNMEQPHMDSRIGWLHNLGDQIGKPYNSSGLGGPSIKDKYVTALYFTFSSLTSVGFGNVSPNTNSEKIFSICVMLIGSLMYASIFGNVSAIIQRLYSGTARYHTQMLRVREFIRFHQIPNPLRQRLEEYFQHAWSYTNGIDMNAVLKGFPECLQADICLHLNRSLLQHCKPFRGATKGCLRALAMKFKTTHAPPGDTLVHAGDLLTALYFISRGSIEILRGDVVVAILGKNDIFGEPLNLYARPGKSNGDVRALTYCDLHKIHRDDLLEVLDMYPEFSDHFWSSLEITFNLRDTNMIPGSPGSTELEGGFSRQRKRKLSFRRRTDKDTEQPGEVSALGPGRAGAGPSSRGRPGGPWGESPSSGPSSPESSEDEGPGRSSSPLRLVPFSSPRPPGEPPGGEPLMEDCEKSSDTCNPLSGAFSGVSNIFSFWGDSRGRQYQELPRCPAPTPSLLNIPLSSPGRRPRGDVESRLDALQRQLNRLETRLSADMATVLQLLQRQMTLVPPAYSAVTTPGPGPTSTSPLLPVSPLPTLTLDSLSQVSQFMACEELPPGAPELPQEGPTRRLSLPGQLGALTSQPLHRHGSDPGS
Data set [5] addresses T1, Melanocortin receptor 4 (Homo sapiens, UniProt P32245). The experiment in a line: Antagonist activity at human MC4R in CHO cells measured for 24 hrs in presence of alpha-MSH. It is filed as cell-based.
Data set [6] can be described thus: Efflux ratio of apparent permeability from basolateral to apical side over apical to basolateral side in MDCK-MDR1 cells. It is filed as ADME, cell-based, Canis lupus familiaris. The settings on record: dog.
A short description of data set [7]: Lipophilicity, logD of compound at pH 7.4 by shake flask method. It is filed as physicochemical. Conditions: buffer.
Data set [8] deals with T1, Melanocortin receptor 4. The data set can be described thus: Antagonist activity at human MC4R in CHO cells measured for 24 hrs. In kind it is cell-based.
Data set [9] concerns the target T1, Melanocortin receptor 4. The data set can be described thus: Antagonist activity at human MC4R expressed in CHO cells assessed as decrease in alpha-MSH induced cAMP level incubated for 1 hr by microplate reader analysis. In kind it is functional, cell-based. On the technique in general: Cyclic AMP is a second messenger, typically raised through Gs and lowered through Gi signalling.

T1 sequence (P32245 whole entry): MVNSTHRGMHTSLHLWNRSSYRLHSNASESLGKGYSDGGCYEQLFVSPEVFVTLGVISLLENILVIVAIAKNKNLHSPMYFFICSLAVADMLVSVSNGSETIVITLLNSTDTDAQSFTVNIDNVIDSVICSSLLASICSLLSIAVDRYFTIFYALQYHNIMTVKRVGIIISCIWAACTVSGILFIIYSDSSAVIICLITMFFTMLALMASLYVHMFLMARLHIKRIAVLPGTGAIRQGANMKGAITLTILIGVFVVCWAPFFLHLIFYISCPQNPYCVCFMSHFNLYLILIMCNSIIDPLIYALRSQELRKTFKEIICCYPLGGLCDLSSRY

As for `COc1cc([C@@H](C)C(=O)N2CC[C@H](Nc3ccc(-c4nc(C(F)F)n(C)n4)c(C)n3)C2)c(F)cn1`, the hepatocyte CLint in [1] and in [3] was 15 µL/min/1e6 cells in each case. The compound further gave a K at Cytochrome P450 3A of 0.015 min⁻¹. In data set [2], the logD was 3.4. This compound returned an IC50 in data set [4] of 25000 nM.
Regarding `COc1cc([C@@H](C)C(=O)N2CC[C@H](Nc3ccc(-c4n[nH]c(C(F)F)n4)c(C)n3)C2)c(F)cn1`, in data set [1], the hepatocyte CLint worked out at 7.5 µL/min/1e6 cells. For the same compound, the inhibition constant Ki on Melanocortin receptor 4 [5] was 62 nM. In [4], this compound yielded an IC50 of 19000 nM.
In [2], `Cc1nc2c(cc1-c1cnn(C)c1)OC[C@@]1(CCN(C(=O)Cc3ccc(F)cc3)C1)N2` yielded a logD of 2.4. In addition, the hepatocyte CLint in data set [3] is 4.9 µL/min/1e6 cells.
The compound `COc1cc([C@@H](C)C(=O)N2CC[C@H](Nc3ccc(-c4nc(C(F)(F)F)n(C)n4)c(C)n3)C2)c(F)cn1` returned a log distribution coefficient (logD) in [2] of 4.2. In addition, in [3], the hepatocyte CLint is 15 µL/min/1e6 cells. Moreover, in [6], the Ratio was found to be 6.1.
In the case of `COc1cc([C@@H](C)C(=O)N2CC[C@H](Nc3ccc(-c4nc(C(F)F)n(C)n4)c(C)n3)C2)ccn1`, the Ki on Melanocortin receptor 4 [5] turned out to be 1.4 nM. The compound also yielded a logD in data set [7] of 2.7. In addition, the hepatocyte CLint in data set [3] worked out at 10 µL/min/1e6 cells. Besides, in [6], the Ratio was 16.
Regarding `COc1cc(CC(=O)N2CC[C@H](Nc3ccc(-c4nc(C(F)F)n(C)n4)c(C)n3)C2)ccn1`, at Melanocortin receptor 4 [5], the Ki was determined as 27 nM. In data set [3], the hepatocyte CLint is 7.1 µL/min/1e6 cells.
For the compound `COc1ccc2nc(N[C@H]3CCN(C(=O)Cc4cc(F)cc(F)c4)C3)c(C)cc2c1`, the Ki on Melanocortin receptor 4 [5] amounted to 910 nM.
The compound `Cc1nc2c(cc1-c1cnn(C)c1)CC[C@@]1(CCN(C(=O)Cc3ccc(F)cc3)C1)N2` gave an IC50 on Melanocortin receptor 4 [8] of 39 nM. Moreover, the inhibition constant (Ki) on Melanocortin receptor 4 [5] amounted to 0.6 nM. In addition, the logD in [7] is 2.6. The hepatocyte CLint in data set [3] turned out to be 6.5 µL/min/1e6 cells. The Ratio in [6] stood at 18.
As to `COc1cc([C@@H](C)C(=O)N2CC[C@H](Nc3ccc(-c4ncccn4)c(C)n3)C2)c(F)cn1`, at Melanocortin receptor 4 [5], the Ki was found to be 6.4 nM. For the same compound, the logD in data set [7] came out at 2.6. Also, in data set [3], the hepatocyte CLint was 7.9 µL/min/1e6 cells. Besides, in data set [6], the Ratio is on record as 4.9.
Take `Cc1nc(N[C@H]2CCN(C(=O)Cc3ccc(F)cc3)C2)ccc1-c1nc(C(F)(F)F)n(C)n1`: in data set [1], the hepatocyte CLint turned out to be 20 µL/min/1e6 cells. In addition, the IC50 was determined as 210 nM on Melanocortin receptor 4 [8] and 78000 nM in data set [4]. For the same compound, at Melanocortin receptor 4 [5], the Ki is 5.5 nM. For the same compound, at Cytochrome P450 3A, the K came out at 0.006 min⁻¹. Moreover, the Ratio in data set [6] was 6.1.
For `Cc1nc(N[C@H]2CCN(C(=O)Cc3ccc(F)cc3)C2)ccc1-c1ncn(C)n1`, the hepatocyte CLint in [1] was 4.5 µL/min/1e6 cells. The compound also yielded an IC50 against Melanocortin receptor 4 [8] of 240 nM. Besides, the Ki on Melanocortin receptor 4 [5] came to 19 nM. In addition, on Cytochrome P450 3A, the K came out at 0.007 min⁻¹. In addition, the Ratio in [6] amounted to 19.
Turning to `COc1ccc2nc(N(C(=O)Cc3cc(F)cc(F)c3)[C@H]3CCNC3)ccc2c1`, the midpoint of inhibition against Melanocortin receptor 4 [8], the IC50, lay at 3.8 nM.
Take `Cc1nc2c(cc1-c1cnn(C)c1)CC1(CCN(C(=O)Cc3ccc(F)cc3)C1)N2` (racemic): the midpoint of inhibition at Melanocortin receptor 4 [8], the IC50, lay at 20000 nM. Further, the Ki at Melanocortin receptor 4 [5] is greater than 2200 nM. In addition, the logD in data set [2] was 1.9. In addition, the Ratio in data set [6] was determined as 34.
Turning to `[2H]C([2H])([2H])n1nc(-c2ccc(N[C@H]3CCN(C(=O)[C@H](C)c4cc(OC)ncc4F)C3)nc2C)nc1C(F)F`, the hepatocyte CLint in [1] stood at 18 µL/min/1e6 cells. For the same compound, the IC50 in [4] was 28000 nM.
Consider `COc1cc(CC(=O)N2CC[C@H](Nc3ccc(-c4nc(C(F)(F)F)n(C)n4)c(C)n3)C2)cc(OC)c1`, for which the logD in data set [2] stood at 3.6. The hepatocyte CLint in [3] worked out at 34 µL/min/1e6 cells.
`COc1ccc2nc(N[C@H]3CCN(C(=O)Cc4cc(F)cc(F)c4)C3)ccc2c1`: the hepatocyte CLint in [1] was 28 µL/min/1e6 cells. For the same compound, the results for the IC50 (on Melanocortin receptor 4 [8]; at Melanocortin receptor 4 [9]; in [4]) were 7.8 nM, 360 nM and 360 nM, respectively. In addition, the inhibitory constant (Ki) at Melanocortin receptor 4 [5] came to 0.62 nM. The K on Cytochrome P450 3A was 0.61 min⁻¹. The Ratio in data set [6] came to 8.6.
The compound `COc1cc([C@@H](C)C(=O)N2CC[C@@]3(CCc4cc(-c5nc(C(F)(F)F)n(C)n5)c(C)nc4N3)C2)c(F)cn1` came in with an IC50 at Melanocortin receptor 4 [8] of 8.4 nM. Besides, the Ki at Melanocortin receptor 4 [5] was found to be 0.45 nM. Moreover, the hepatocyte CLint in data set [3] is 12 µL/min/1e6 cells. Besides, in data set [6], the Ratio is 4.8.
Take `COc1cc([C@@H](C)C(=O)N2CC[C@@]3(CCc4cc(-c5nc(C(F)F)n(C)n5)c(C)nc4N3)C2)c(F)cn1`: the Ki at Melanocortin receptor 4 [5] is 0.49 nM. Also, the logD in data set [7] was 3.2. Further, in data set [3], the hepatocyte CLint came to 11 µL/min/1e6 cells. Also, the Ratio in data set [6] is given as 8.7.

In general, logD refers to the decadic logarithm of the distribution of all forms, ionised or not, between an organic phase and buffer at a given pH. A low value points to a more hydrophilic compound. What is called IC50 is the concentration needed to halve the response being measured. The Ki is a measure of affinity in units of concentration, obtained from inhibition or displacement.
